# Measurements published in patent US20260234180A1, “AMINO ACID DERIVATIVE, PREPARATION METHOD THEREFOR, AND PHARMACEUTICAL COMPOSITION FOR TREATING HEPATITIS, COMPRISING SAME” (priority 2021, published 2026).
# Tests used:
# [1] = target: T1, NTCP (Na+ taurocholate cotransporting peptide), HepG2-hNTCP-C4 cell line (Homo sapiens, UniProt Q14973); test: Inhibition of binding between FITC-labelled PreS1 and NTCP expressing cell line, flow cytometry; details: for relative fluorescence intensity in comparison with the parent bile acid Comparative Example: vs Comparative Example 2 (UDCA), 5 (DCA) or 6 (CDCA), method as Experimental Example 1-1; for relative fluorescence intensity compared to Comparative Example 1 (LCA): compound 50 µM, 20 nM PreS1, 4° C., 2 hours, lower = more inhibited binding
# T1 construct: expressed in transfected cells; host or cells: HepG2-hNTCP-C4 (HepG2 cells expressing human NTCP)
# T1 sequence (Q14973 1-349): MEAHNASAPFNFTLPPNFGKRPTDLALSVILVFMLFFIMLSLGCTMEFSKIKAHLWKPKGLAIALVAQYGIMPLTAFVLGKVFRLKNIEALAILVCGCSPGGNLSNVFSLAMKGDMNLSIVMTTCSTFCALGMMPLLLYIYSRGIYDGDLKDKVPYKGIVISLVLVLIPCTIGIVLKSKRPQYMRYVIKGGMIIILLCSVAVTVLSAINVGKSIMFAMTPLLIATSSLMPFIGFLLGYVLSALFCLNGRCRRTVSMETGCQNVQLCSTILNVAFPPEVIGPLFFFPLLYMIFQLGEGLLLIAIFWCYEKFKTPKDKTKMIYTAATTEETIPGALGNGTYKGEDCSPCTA
# Experimental: HepG2-hNTCP-C4 cell line, a cell line expressing NTCP, was seeded in a 6 well plate at a density of 2×10^5/well and incubated at 4° C. for 30 minutes when the confluency reached 80% after overnight incubation for 2 days. Thereafter, 20 nM PreS1 (Myr-GTNL […]-Lys(FITC) (SEQ ID NO: 1)) and the compounds in Example 1, Examples 38 to 56 or the compound in Comparative Example 1 were treated by diluting in culture media at 4° C. at a concentration of 50 µM respectively, and the media was suctioned after 2 hours, followed by washing 3 times with 4° C. PBS. In order to take the cells off from the plate, 500 μl of 0.5 mM EDTA PBS solution was treated, and then incubation was performed at 37° C. for 15 minutes to check whether the cells fell off through an optical microscope. After taking off the cells by pipetting, the cells were collected in a 1.5 ml tube and centrifuged (4000 rpm, 4° C., 3 min). After suctioning the supernatant, the pellet was washed 3 times with 4° C. PBS, and then green fluorescence was measured via flow cytometry. In this case, taurocholic acid (TCA), a compound known as a substrate of NTCP to reduce the entry of HBV or HDV, was used as a positive control group.
# In the graph at the top of FIG. 1, black (1) and red (2) indicate a negative control group with no treatment and an HBV-induced group (HBV preS1) solely treated with PreS1, respectively. Blue (HBV preS1+HBV entry inhibitor) (3) is the fluorescence value for each of Examples or Comparative Examples, evaluated that the closer to the negative control group, the more inhibited the binding between PreS1 and the NTCP cell line.
# The experimental method was the same as in the Experimental Example 1-1, and 20 nM PreS1 and each compound were treated at 4 concentrations (0.2 μM, 2 μM, 10 μM, 50 μM).
# With an expectation that there is a structure-activity relationship among compounds composed of bile acid and amino acids, for each of bile acids in Comparative Example 1 (lithocholic acid, LCA), Comparative Example 2 (ursodeoxycholic acid, UDCA), Comparative Example 3 (cholic acid, CA), Comparative Example 4 (hyodeoxycholic acid, HDCA), Comparative Example 5 (deoxycholic acid, DCA), and Comparative Example 6 (chenodeoxycholic acid, CDCA), an evaluation experiment was conducted on an ability to inhibit the binding between PreS1 and NTCP expressing cell lines, and also for Examples 1 (LCA-Ile) and Example 44 (LCA-Val) as well as the compounds in Example 2 (UDCA-Ile), Example 3 (UDCA-Val), Example 6 (CA-Ile), Example 7 (CA-Val), Example 8 (HDCA-Ile), Example 9 (HDCA-Val), Example 10 (DCA-Ile), Example 11 (DCA-Val), Example 14 (CDCA-Ile), and Example 15 (CDCA-Val) in which bile acid parts (lithocholic acid) of Example 1 (LCA-Ile) and Example 44 (LCA-Val) were substituted with other types of bile acids in Comparative Examples 2 to 6, an evaluation experiment was conducted on an ability to inhibit the binding between PreS1 and NTCP expressing cell lines. The experimental method was the same as in the Experimental Example 1-1, and 18 compounds in the Comparative Examples 1 to 6, Examples 1 to 3, Examples 6 to 11, Examples 14 to 15, and Example 44 were treated at a concentration of 50 µM along with 20 nM PreS1.
# In FIG. 9, an evaluation experiment was conducted to check a degree of inhibiting the binding between PreS1 and NTCP expressing cell lines for compounds in Examples 4 to 5, Examples 12 to 13, Examples 16 to 17, and Comparative Examples 2 (ursodeoxycholic acid, UDCA), Comparative Examples 5 (deoxycholic acid, DCA), and Comparative Examples 6 (chenodeoxycholic acid, CDCA) according to the present disclosure. The experimental method was the same as the Experimental Example 1-1.
# In the Experimental Examples 1-4, it was determined whether there is additionally concentration dependence for Example 4 (UDCA-Trp), a compound with good inhibitory ability. […]
# [2] = system: HBV virus; test: HBV infection of HepG2-NTCP cells, HBeAg ELISA analysis; format: cell-based, hepatitis B virus (HBV); details: 20 μM, O.D. 450 nm
# Experimental: Specifically, the HepG2-NTCP cell line was cultured on a 6-well plate, incubation was performed overnight, HBV inhibitors were treated at a concentration of 20 μM, and the positive control Myrcludex-B (MyrB) was treated at a concentration of 200 nM, followed by culture for 24 hours. After HBV infection into the cells to make HBV 3000 genome equivalent per ml/cell (Geq/cell), the cell culture medium was replaced (medium changing, MC) a day after the viral infection to remove the virus unattached to cell membranes. In order to measure an amount of virus that entered the cell, medium changing (MC) was performed once more 4 days after viral infection. 2 days after replacement, HBeAg ELISA analysis was performed using a supernatant, and Southern blot analysis was performed with cell pellets.
# HBeAg ELISA analysis was performed using an HBeAg ELISA kit (sanbio, Wantai HBeAg ELISA, cat #WB-2496) for the supernatant obtained by the method in Experimental Example 4-1.
# First, a negative control group (Mock), positive control group (MyrB), and samples according to the present disclosure were loaded, by 50 μl each to be triplicate, onto a 96-well plate coated with capture Ab. In this case, Example 1 (LCA-ILE), Example 44 (LCA-Val), Example 52 (LCA-Tyr), Example 51 (LCA-Ser), Example 55 (LCA-Glu), Example 2 (UDCA-Ile), Example 3 (UDCA-Val), Example 25 (LCA-Val-Trp), Example 10 (DCA-Ile), Comparative Example 1 (LCA), and Comparative Example 2 (UDCA) were used as the sample.
# The HRP-conjugated detection antibody was loaded into each well by 50 μl, followed by a reaction at 37° C. for 30 minutes. Washing buffer (1×PBS, 0.5% Tween20) was added by 200 μl, and washing was performed 5 times. 50 μl of chromogen solution A and 50 μl of chromogen solution B were added to each well, and a reaction was carried out in the darkness at 37° C. for 15 minutes. The stop solution was added to each well by 50 μl each to stop the reaction, and the amount of HBeAg was measured by measuring the absorbance (optical density, O.D.) level in the 450 nm wavelength band.
# [3] = compared to the HBV-induced group (PreS1-FITC) solely treated with PreS1
SMILES,relative fluorescence intensity in comparison with the parent bile acid Comparative Example [1],relative fluorescence intensity compared to Comparative Example 1 (LCA) [1],other results
"C[C@H](CCC(=O)N[C@@H](Cc1c[nH]c2ccccc12)C(=O)O)[C@H]1CC[C@H]2[C@@H]3CC[C@@H]4C[C@H](O)CC[C@]4(C)[C@H]3C[C@H](O)[C@]12C [Example 12, (S)-2-((R)-4-((3R,5R,8R,9S,10S,12S,13R,14S,17R)-3,12-dihydroxy-10,13-dimethyl-hexadecahydro-1H-cyclopenta[a]phenanthren-17-yl)pentanamido)-3-(1H-indol-3-yl)propanoic acid]",the same or lower,–,"difference in degree of competitive inhibition versus the parent bile acid Comparative Example ([1]; compared to the HBV-induced group (PreS1-FITC) solely treated with PreS1, vs Comparative Example 5 or 6): 11.6%"
"C[C@H](CCC(=O)N[C@@H](Cc1c[nH]c2ccccc12)C(=O)O)[C@H]1CC[C@H]2[C@@H]3[C@@H](O)C[C@@H]4C[C@H](O)CC[C@]4(C)[C@H]3CC[C@]12C [Example 4, (S)-2-((R)-4-((3R,5S,7S,8R,9S,10S,13R,14S,17R)-3,7-dihydroxy-10,13-dimethyl-hexadecahydro-1H-cyclopenta[a]phenanthren-17-yl)pentanamido)-3-(1H-indol-3-yl)propanoic acid]",low,–,"effect of inhibiting the binding between PreS1 and NTCP expressing cell lines by treatment concentration ([1]; 2 μM, 10 μM, 20 μM, 50 μM, 20 nM PreS1): concentration dependent; difference in degree of competitive inhibition versus Comparative Example 2 (UDCA) [1, 3]: about 2 times"
"C[C@H](O)[C@H](NC(=O)CC[C@@H](C)[C@H]1CC[C@H]2[C@@H]3CC[C@@H]4C[C@H](O)CC[C@]4(C)[C@H]3CC[C@]12C)C(=O)O [Example 39, (2S,3S)-3-hydroxy-2-((R)-4-((3R,5R,8R,9S,10S,13R,14S,17R)-3-hydroxy-10,13-dimethyl-hexadecahydro-1H-cyclopenta[a]phenanthren-17-yl)pentanamido)butanoic acid]",–,low and lower,–
"C[C@H](CCC(=O)N[C@@H](CO)C(=O)O)[C@H]1CC[C@H]2[C@@H]3CC[C@@H]4C[C@H](O)CC[C@]4(C)[C@H]3CC[C@]12C [Example 51, (S)-3-hydroxy-2-((R)-4-((3R,5R,8R,9S,10S,13R,14S,17R)-3-hydroxy-10,13-dimethyl-hexadecahydro-1H-cyclopenta[a]phenanthren-17-yl)pentanamido)propanoic acid]",–,low,HBeAg absorbance level relative to the negative control group (Mock) [2]: relatively lower
"C[C@H](CCC(=O)N[C@@H](CCCCN)C(=O)O)[C@H]1CC[C@H]2[C@@H]3CC[C@@H]4C[C@H](O)CC[C@]4(C)[C@H]3CC[C@]12C [Example 56, (S)-6-amino-2-((R)-4-((3R,5R,8R,9S,10S,13R,14S,17R)-3-hydroxy-10,13-dimethyl-hexadecahydro-1H-cyclopenta[a]phenanthren-17-yl)pentanamido)hexanoic acid]",–,low,–
"C[C@H](CCC(=O)N[C@@H](Cc1ccc(O)cc1)C(=O)O)[C@H]1CC[C@H]2[C@@H]3[C@@H](O)C[C@@H]4C[C@H](O)CC[C@]4(C)[C@H]3CC[C@]12C [Example 5, (S)-2-((R)-4-((3R,5S,7S,8R,9S,10S,13R,14S,17R)-3,7-dihydroxy-10,13-dimethyl-hexadecahydro-1H-cyclopenta[a]phenanthren-17-yl)pentanamido)-3-(4-hydroxyphenyl)propanoic acid]",low,–,"difference in degree of competitive inhibition versus Comparative Example 2 (UDCA) [1, 3]: about 2 times"
"C[C@H](NC(=O)CC[C@@H](C)[C@H]1CC[C@H]2[C@@H]3CC[C@@H]4C[C@H](O)CC[C@]4(C)[C@H]3CC[C@]12C)C(=O)O [Example 46, (S)-2-((R)-4-((3R,5R,8R,9S,10S,13R,14S,17R)-3-hydroxy-10,13-dimethyl-hexadecahydro-1H-cyclopenta[a]phenanthren-17-yl)pentanamido)-3-propanoic acid]",–,low,–
"C[C@H](CCC(=O)N[C@@H](Cc1ccccc1)C(=O)O)[C@H]1CC[C@H]2[C@@H]3CC[C@@H]4C[C@H](O)CC[C@]4(C)[C@H]3CC[C@]12C [Example 49, (S)-2-((R)-4-((3R,5R,8R,9S,10S,13R,14S,17R)-3-hydroxy-10,13-dimethyl-hexadecahydro-1H-cyclopenta[a]phenanthren-17-yl)pentanamido)-3-phenylpropanoic acid]",–,low,–
